One data set deals with T1, human PARP-1 (Homo sapiens, UniProt P09874).
T1 construct: made in house
Briefly: biochemical. It counts as biochemical. The note with it: for IC50: auto-poly(ADP-ribosyl)ation, NAD+ 0.3 mM, 37°C. On the procedure:
(§1) Recombinant human PARP-1 and murine PARP- 2 proteins were purified as described previously. Reaction of poly(ADP-ribosyl)ation catalyzed by PARP-1 and PARP-2 was performed at optimal conditions for each enzyme. Briefly, for PARP-1: 50 mM Tris-HCl pH 8.0, 20 mM MgCl2, 150 mM NaCl, 7 mM β-mercaptoethanol, activated DNA (2 o.u.280/ml, degree of activation 25%), 300 •µM NAD^+ (0.18 •µCi [^3H]NAD^+), 37°C. The reaction was started by adding PARP-1 up to a final concentration of 0.2 μM and was stopped after 1 min, placing the reaction mixture on paper filters (Whatman-1) soaked with a 5% solution of trichloroacetic acid. For PARP-2: 50 mM Tris-HCl pH 8.0, 40 mM NaCl, 0.1 mg/ml BSA, 8 mM MgCl2, 1 mM DTT, activated DNA (2 o.u.280/ml, degree of activation 25%), 400 •µM NAD^+ (0.4 •µCi [^3H]NAD^+), 37°C. The reaction was started by adding PARP-2 up to a final concentration of 0.2 μM and was stopped after 5 min, placing the reaction mixture on the paper filters. The filters were washed four times by the 5% trichloroacetic acid, then by 90% ethanol (to remove acid), and air-dried. The quantity of radiolabel included into the acid insoluble product was registered on a scintillation counter Tri-Carb 2800 (Perkin Elmer) in a toluene scintillator. The quantity of the radiolabeled product was determined at the initial rate period.
(§2) The PARP-inhibiting activity of the synthesized compounds was evaluated in a reaction of auto- poly(ADP-ribosyl)ation at a NAD^+ concentration of 0.3 mM for PARP-1 and 0.4 mM for PARP-2. Different concentrations of the tested compounds were added to the reaction mixture before adding the enzyme. Reaction and detection of the products were performed as described above. To determine the IC50 value (concentration of the compound required to reduce the enzyme activity by 50%), the effect of different concentrations of the inhibitor on the enzyme activity was examined. Measurements were done in at least two independent experiments. IC50 values were calculated using the Origin Pro 8.0 software by nonlinear regression analysis.

The target of the next data set is T2, murine PARP-2 (Mus musculus, UniProt O88554).
T2 construct: made in house
T2 sequence (O88554 whole entry): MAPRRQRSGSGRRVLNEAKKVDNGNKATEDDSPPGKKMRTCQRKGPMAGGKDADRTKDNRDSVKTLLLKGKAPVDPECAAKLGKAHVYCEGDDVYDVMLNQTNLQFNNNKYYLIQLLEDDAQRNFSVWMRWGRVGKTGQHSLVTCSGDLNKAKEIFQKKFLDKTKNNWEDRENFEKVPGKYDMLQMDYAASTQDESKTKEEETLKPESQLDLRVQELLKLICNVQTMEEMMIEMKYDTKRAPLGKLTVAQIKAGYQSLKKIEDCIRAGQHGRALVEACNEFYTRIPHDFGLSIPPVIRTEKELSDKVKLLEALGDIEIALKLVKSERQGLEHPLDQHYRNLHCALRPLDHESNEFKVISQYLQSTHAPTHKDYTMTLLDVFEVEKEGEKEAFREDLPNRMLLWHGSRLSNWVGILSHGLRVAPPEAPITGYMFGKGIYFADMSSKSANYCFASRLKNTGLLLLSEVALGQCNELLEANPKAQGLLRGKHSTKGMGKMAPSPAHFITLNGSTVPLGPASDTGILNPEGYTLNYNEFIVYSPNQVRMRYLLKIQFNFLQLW
Briefly: PARP-2 auto-poly(ADP-ribosyl)ation enzyme assay ([3H]NAD+ incorporation). It counts as biochemical. The note with it: for IC50: auto-poly(ADP-ribosyl)ation, NAD+ 0.4 mM, 37°C. The procedure:
as §1, §2

Data set [1] deals with HCC1937 cells. As to the kind of experiment: Caspase-3-like activity (fluorogenic peptide substrate cleavage). Type of data set: cell-based, human. The settings on record: 7-methylguanine alone, 48 h. On the procedure:
(§3) A BRCA1-deficient human breast cancer line HCC1937 (ATCC CRL-2336) was cultured in DMEM supplemented with 10% heat-inactivated fetal bovine serum, penicillin/streptomycin (100 U/ml), and pyruvate (0,11 mg/ml) at 37°C in 20% O2 humidified atmosphere. The cells were maintained in a logarithmic growth phase for all experiments.
To perform cell cycle analysis, the cells were then harvested after 72 hours, fixed with 70% EtOH (final concentration) for 60 min on ice, rinsed in PBS, and stained in a 500 •µl solution containing 50 •µg/ml propidium iodide and 25 •µg/ml RNase A for 15 min. Data were acquired by a BD FACS CantoII flow cytometer (BD Biosciences) and analyzed using the FACSDiva software. The cleavage of the fluorogenic peptide substrate […] was measured using a fluorometric assay. Upon treatment with cytotoxic agents, the cells were incubated for 48 hours, then harvested and washed with PBS. After centrifugation, they were re-suspended in PBS at a concentration of 2 × 10^6 cells/100 μl. […] Cleavage of the fluorogenic peptide substrate was monitored by AMC liberation in a VarioScan Flash multimode detector (Thermo Scientific) using 380 nm excitation and 460 nm emission wavelengths. […]

Data set [2] deals with HCC1937 cells. Briefly: Cytotoxicity: Sub-G1 population by flow cytometry. The note with it: for Sub-G1 population: 72 h. It counts as cell-based, human. The procedure: as §3
To perform cell cycle analysis, the cells were then harvested after 72 hours, fixed with 70% EtOH (final concentration) for 60 min on ice, rinsed in PBS, and stained in a 500 •µl solution containing 50 •µg/ml propidium iodide and 25 •µg/ml RNase A for 15 min. Data were acquired by a BD FACS CantoII flow cytometer (BD Biosciences) and analyzed using the FACSDiva software. The cleavage of the fluorogenic peptide substrate […] was measured using a fluorometric assay. Upon treatment with cytotoxic agents, the cells were incubated for 48 hours, then harvested and washed with PBS. After centrifugation, they were re-suspended in PBS at a concentration of 2 × 10^6 cells/100 μl. Then, 25 μl of the suspension was added to a 96-well plate and mixed with a DEVD peptide substrate dissolved in a standard reaction buffer (100 mM HEPES, 10% sucrose, 5 mM DTT, 0.001% NP- 40, and 0.1% CHAPS, pH 7.2). Cleavage of the fluorogenic peptide substrate was monitored by AMC liberation in a VarioScan Flash multimode detector (Thermo Scientific) using 380 nm excitation and 460 nm emission wavelengths. Measurements were done in at least two independent experiments.
(In general: Flow cytometry measures light scatter and fluorescence of single cells or particles in a stream.)

A further data set has as its system PARP-1. The note with it: cited from earlier work.
The subject of the next data set is PARP. More on the design: method as in PMID 11149897, PMID 16870158. The settings on record: cited from earlier work.
Setting [3] is: replacement of 2-oxo group by amino group.

The term IC50 denotes the concentration needed to halve the response being measured.

T1 sequence (P09874 whole entry): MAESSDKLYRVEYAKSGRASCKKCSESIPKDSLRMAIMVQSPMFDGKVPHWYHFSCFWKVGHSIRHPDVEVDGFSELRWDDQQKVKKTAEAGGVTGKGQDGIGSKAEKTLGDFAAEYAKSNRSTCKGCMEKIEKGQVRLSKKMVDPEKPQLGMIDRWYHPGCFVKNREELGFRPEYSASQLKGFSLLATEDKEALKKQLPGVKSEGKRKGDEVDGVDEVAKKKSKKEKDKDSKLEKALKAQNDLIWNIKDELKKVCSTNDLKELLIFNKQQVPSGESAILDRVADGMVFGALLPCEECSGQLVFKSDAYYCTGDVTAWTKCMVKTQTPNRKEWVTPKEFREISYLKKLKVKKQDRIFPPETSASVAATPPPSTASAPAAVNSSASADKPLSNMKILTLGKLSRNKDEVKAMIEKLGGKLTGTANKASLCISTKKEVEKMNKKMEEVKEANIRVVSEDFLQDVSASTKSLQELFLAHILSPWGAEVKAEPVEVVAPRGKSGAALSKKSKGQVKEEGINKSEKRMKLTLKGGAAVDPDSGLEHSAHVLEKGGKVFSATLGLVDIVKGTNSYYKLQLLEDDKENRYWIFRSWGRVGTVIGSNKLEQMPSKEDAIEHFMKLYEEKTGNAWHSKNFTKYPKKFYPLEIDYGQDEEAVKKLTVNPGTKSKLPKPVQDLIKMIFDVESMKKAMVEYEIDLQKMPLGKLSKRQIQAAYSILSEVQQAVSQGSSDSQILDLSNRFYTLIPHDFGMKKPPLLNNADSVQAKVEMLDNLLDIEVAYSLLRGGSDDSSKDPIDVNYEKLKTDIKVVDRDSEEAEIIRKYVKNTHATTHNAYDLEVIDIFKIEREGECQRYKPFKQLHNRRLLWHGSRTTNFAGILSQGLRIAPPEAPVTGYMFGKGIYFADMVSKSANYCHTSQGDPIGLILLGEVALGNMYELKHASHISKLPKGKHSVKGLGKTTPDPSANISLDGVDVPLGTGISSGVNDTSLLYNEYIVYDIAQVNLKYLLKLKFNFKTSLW

With `CCn1cnc2[nH]c(N)nc(=O)c21` [7-ethylguanine, 7-Ethylguanine], the IC50 worked out at 230 µM on human PARP-1 and 90 µM against murine PARP-2.

For `Cn1cnc2nc(N)[nH]c(=O)c21` [7-methylguanine, 7-Methylguanine], in the data set with HCC1937 cells [1], the caspase-3 activation entry is on record as “no caspase-3 activation”. Besides, the IC50 at human PARP-1 is 150 µM; on murine PARP-2, 50 µM. For the same compound, the “increase in the ability to inhibit PARP-1 compared with 7-methylxanthine” value at human PARP-1 (setting [3]) came out at 5 fold. In addition, the “increase in the ability to inhibit PARP-2 compared with 7-methylxanthine” value on murine PARP-2 (setting [3]) was found to be 3 fold. In addition, the Sub-G1 population entry in the data set on HCC1937 cells [2] (7-methylguanine 150 μM alone) is reported as “around 2%”. Also, the cytotoxicity entry in the data set with HCC1937 cells [2] (at the PARP inhibitory concentration, 7-methylguanine alone) is on record as “not cytotoxic”.

`Cn1cnc2nc[nH]c(=O)c21` [7-methylhypoxanthine, 7-Methylhypoxanthine]: the IC50 at human PARP-1 was 780 µM; against murine PARP-2, 620 µM.

Turning to `Cn1cnc2[nH]c(=O)[nH]c(=O)c21` [7-methylxanthine, 7-Methylxanthine], the IC50 is 800 µM on human PARP-1 and 160 µM against murine PARP-2. Further, the PARP-1 inhibition entry in the data set with PARP-1 is listed as “moderate inhibitor”.

On to `N.N.[Cl][Pt][Cl]` [cisplatin, reference compound], for which the Sub-G1 population in the data set on HCC1937 cells [2] (cisplatin 70 μM alone) was 34%.

In turn, `COc1cccc2c1C(=O)c1c(O)c3c(c(O)c1C2=O)C[C@@](O)(C(=O)CO)C[C@@H]3O[C@H]1C[C@H](N)[C@H](O)[C@H](C)O1` [doxorubicin, reference compound] returned a Sub-G1 population with HCC1937 cells [2] (doxorubicin 1 μM alone) of 32%.

On to `O=c1[nH]cnc2nc[nH]c12` [hypoxanthine], for which the PARP inhibitory effect entry in the data set with PARP is recorded as “relatively weak inhibitory effect”.

On to `Cc1c[nH]c(=O)[nH]c1=O` [thymine], for which the PARP inhibitory effect entry with PARP was “relatively weak inhibitory effect”.

Regarding `O=c1[nH]c(=O)c2nc[nH]c2[nH]1` [xanthine, reference compound], the PARP-1 inhibition entry in the data set with PARP-1 is listed as “does not show inhibition”.

(Values after PMC4947994 (Acta Naturae, 2016).)
